ChEMBL document CHEMBL5385859, “Research progress and challenges of TRPV1 channel modulators as a prospective therapy for diabetic neuropathic pain” (Eur J Med Chem, 2023)

Tests used:
[1] = Lipophilicity, […] of the compound at pH 6.5; format: physicochemical; conditions: buffer
[2] = target: T1, Transient receptor potential cation channel subfamily V member 1 (Homo sapiens, UniProt Q8NER1); experiment: Antagonist activity at human recombinant TPRV1
[3] = target: T1, Transient receptor potential cation channel subfamily V member 1; experiment: Inhibition of TRPV1 (unknown origin)
[4] = Lipophilicity, log P of the compound in PBS buffer; format: physicochemical
[5] = target: T1, Transient receptor potential cation channel subfamily V member 1; experiment: Activation of human TRPV1 expressed in HEK293F cells; format: cell-based
[6] = target: T1, Transient receptor potential cation channel subfamily V member 1; experiment: Antagonist activity at TRPV1 (unknown origin)
[7] = species: Mus musculus; experiment: Analgesic activity in CCI-induced neuropathic pain in wild type C57BL/6 mouse model assessed as reduction in paw threshold pain measured after 2 hrs; format: functional
[8] = system: Mus musculus; experiment: Analgesic activity in CCI-induced neuropathic pain mouse model assessed as increase in mechanical paw withdrawal threshold at 5 mg/kg,ip administration measured after 30 mins by von frey test; format: functional, organism-based; conditions: 0.5 h
[9] = target: T1, Transient receptor potential cation channel subfamily V member 1; experiment: Binding affinity to human TRPV1 assessed as inhibition constant by SPR analysis
[10] = target: T1, Transient receptor potential cation channel subfamily V member 1; experiment: Agonist activity at human TRPV1 overexpressed in HEK293 cells incubated for 1 hr by Fluo-4 AM dye based microscopic analysis; format: cell-based

T1 sequence (Q8NER1 whole entry): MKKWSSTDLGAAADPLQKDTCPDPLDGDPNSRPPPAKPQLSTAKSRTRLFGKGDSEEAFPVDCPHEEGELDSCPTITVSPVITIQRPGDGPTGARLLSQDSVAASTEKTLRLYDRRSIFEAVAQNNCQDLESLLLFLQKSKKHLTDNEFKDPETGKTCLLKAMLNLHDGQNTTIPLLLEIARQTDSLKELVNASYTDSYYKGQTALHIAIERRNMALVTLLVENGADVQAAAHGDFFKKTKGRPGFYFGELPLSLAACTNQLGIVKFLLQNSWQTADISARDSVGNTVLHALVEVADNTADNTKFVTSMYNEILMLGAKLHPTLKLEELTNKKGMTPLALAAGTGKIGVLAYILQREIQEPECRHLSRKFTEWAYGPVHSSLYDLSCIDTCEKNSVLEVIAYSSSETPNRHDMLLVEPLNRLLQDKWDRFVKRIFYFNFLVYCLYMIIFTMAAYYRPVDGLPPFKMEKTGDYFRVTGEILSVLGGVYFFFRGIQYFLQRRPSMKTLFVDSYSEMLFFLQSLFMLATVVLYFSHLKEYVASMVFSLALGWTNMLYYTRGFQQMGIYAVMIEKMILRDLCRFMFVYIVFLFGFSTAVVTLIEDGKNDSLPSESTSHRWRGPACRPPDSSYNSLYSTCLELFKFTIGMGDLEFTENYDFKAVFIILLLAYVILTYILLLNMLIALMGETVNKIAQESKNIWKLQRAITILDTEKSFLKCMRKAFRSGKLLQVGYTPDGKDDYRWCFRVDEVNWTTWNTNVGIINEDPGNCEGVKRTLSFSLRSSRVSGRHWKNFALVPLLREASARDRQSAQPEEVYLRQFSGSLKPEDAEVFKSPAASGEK

**Q.** For `C[C@H](NC(=O)Cn1cnc2ccc(F)c(F)c21)c1ccc(C(C)(C)C)cc1`, which logD [1] is on record?
**A.** 4.34

**Q.** What about the IC50 [2] of the same compound?
**A.** 5 nM

**Q.** For `CC(C)c1cccc(C(C)C)c1O` [PROPOFOL], which IC50 [3] is on record?
**A.** 5.05 nM

**Q.** What about the logP [4] of the same compound?
**A.** 4.15

**Q.** For `Cc1ccc(N2c3cccc(C(=O)Nc4ccc(OCC(F)(F)F)nc4)c3OC[C@@H]2CO)nc1` [JTS-653], which logD [1] is on record?
**A.** 3.83

**Q.** What about the IC50 [2] of the same compound?
**A.** 236 nM

**Q.** With `O=C(Nc1ccc(C(F)(F)F)cn1)N1CC=C(c2ncc([C@H](O)CO)cc2Cl)CC1` as the compound, how does the logD [1] read?
**A.** 2.11

**Q.** With `O=C(Nc1cccc2cnccc12)N1CCC[C@H]1CNc1ccc(Br)cc1` as the compound, how does the IC50 [5] read?
**A.** 84 nM

**Q.** Which IC50 [6] does the source give for `CC(C)(C)c1ccc(CNC(=S)NCc2ccc(NS(C)(=O)=O)c(F)c2)cc1` here?
**A.** 8 nM

**Q.** Which logD [1] does the source give for `CCCc1nc(C(F)(F)F)ccc1/C=C/C(=O)N[C@H](C)c1cc(F)c(NS(C)(=O)=O)c(F)c1` here?
**A.** 3.67

**Q.** Which Activity [7] does the source give for `CC(=O)Nc1nc2c(Oc3cc(-c4ccc(C(F)(F)F)cc4)ncn3)cccc2s1` [AMG-517] here?
**A.** 760 nM

**Q.** For `C=C(C)[C@]12C[C@@H](C)[C@@]34O[C@](Cc5ccccc5)(O[C@@H]1[C@@H]3C=C(COC(=O)Cc1ccc(O)c(OC)c1)C[C@]1(O)C(=O)C(C)=C[C@@H]41)O2` [RESINIFERATOXIN], which EC50 [8] is on record?
**A.** 920 nM

**Q.** With `COc1cc(C/N=C(\S)NCc2ccc(Cl)cc2)cc(I)c1O` as the compound, how does the IC50 [6] read?
**A.** 106 nM

**Q.** Which logP [4] does the source give for `COc1cc(CNC(=O)CCCC/C=C/C(C)C)ccc1O` [CAPSAICIN] here?
**A.** 3.74

**Q.** Which logD [1] does the source give for `CC(C)c1nc2cc(O)ccc2c(=O)n1-c1ccc(C#N)cc1` here?
**A.** 3.45

**Q.** With `CC(C)(O)c1ccccc1-c1ccc2[nH]c(/C=C/c3ccc(C(F)(F)F)cc3)nc2c1` as the compound, how does the logD [1] read?
**A.** 6.27

**Q.** Which logP [4] does the source give for `CNCC1CCCCN1C(=O)Oc1ccc(CNC(=O)CCCC/C=C/C(C)C)cc1OC` (centres undefined) [VOCACAPSAICIN] here?
**A.** 4.32

**Q.** Which logD [1] does the source give for `O=C(Nc1ccccc1Br)N[C@@H]1CCN(c2ccc(C(F)(F)F)cn2)C1` [SB-705498] here?
**A.** 3.98

**Q.** And the Activity [7]?
**A.** 8.8 nM

**Q.** With `CC(C)(C)C(=O)OCC(CNC(=S)NCc1ccc(NS(C)(=O)=O)c(F)c1)Cc1ccccc1` (centres undefined) as the compound, how does the Ki [9] read?
**A.** 7.8 nM

**Q.** Which logD [1] does the source give for `CC(C)(C)c1ccc2c(c1)CC[C@H]2NC(=O)Nc1cccc2[nH]ncc12` [ABT-102] here?
**A.** 4.59

**Q.** For `CC(C)(C)c1ccc(CNC(=S)NCc2ccc(NS(C)(=O)=O)cc2)cc1`, which IC50 [6] is on record?
**A.** 0.11 nM

**Q.** For `CC(C)=CCCC1(C)CC1CO` (centres undefined), which logP [4] is on record?
**A.** 2.5

**Q.** For `O=C(Nc1ccc(C(F)(F)F)cc1)N1CC=C(c2ncc([C@H](O)CO)cc2Cl)CC1`, which IC50 [10] is on record?
**A.** 33.8 nM
